What is called pEC50 is the EC50 on a negative log10 scale, so that one unit is a factor of ten. The term CC50 denotes the concentration at which the toxic effect on the cells reaches its halfway point. Low readings indicate greater toxicity to the cells, high ones lower toxicity to the cells.

The results in this text go back to patent US20190375708A1 (VenatoRx Pharmaceuticals, Inc., priority 2018, published 2019).

Series [1] has as its system HBV replication in HepAD38 cells. As to the kind of experiment: Anti-HBV replication assay in HepAD38 cells (QPCR of extracellular HBV DNA). The series is classed as cell-based, HBV (genotype D, serotype ayw). The settings on record: Hepatitis B virus, 168 h, 7 days incubation, extracellular HBV DNA by QPCR, read-out: Anti-HBV EC50. Summed up:
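EC50 values reflect 50% reduction of extracellular HBV DNA, measured by QPCR after 7-day treatment of tetracycline-deprived HepAD38 cells with compound […].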

Series [2] is described as follows: In vitro cytotoxicity assay (MTT cell viability) in HepG2 cells. The series is classed as cell-based, human. The settings on record: human. A digest of the protocol:
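Read-out: MTT formazan absorbance at 492 nm, expressed as % of vehicle signal; CC50 by 4-parameter non-linear regression. Parental HepG2, 20,000 cells/well, treated 7 days with compound from 30 μM down to 1.0 nM.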

pEC50: −log10 of the molar value.

Regarding `CCNC(=O)N1CCC(C)(NC(=O)C(=O)c2c(C)c(C(=O)Nc3ccc(F)c(C)c3)c(C)n2C)CC1` [Example 614, N-ethyl-4-(2-(4-((4-fluoro-3-methylphenyl)carbamoyl)-1,3,5-trimethyl-1H-pyrrol-2-yl)-2-oxoacetamido)-4-methylpiperidine-1-carboxamide], in series [1], the pEC50 was greater than 7.30. Further, the CC50 at 7 days in series [2] was greater than 30 µM.

In the case of `Cc1cc(NC(=O)c2c(C)c(C(=O)C(=O)Nc3nc(CO)cs3)n(C)c2C)ccc1F` [Example 308, N-(4-fluoro-3-methylphenyl)-5-(2-((4-(hydroxymethyl)thiazol-2-yl)amino)-2-oxoacetyl)-1,2,4-trimethyl-1H-pyrrole-3-carboxamide], the pEC50 in series [1] is 6.00 to 6.30. In series [2], this compound gave a CC50 at 7 days greater than 30 µM.

Turning to `Cc1cc(NC(=O)c2c(C)c(C(=O)C(=O)N[C@H]3[C@@H]4CN(S(C)(=O)=O)C[C@@H]43)n(C)c2C)ccc1F` [Example 644, N-(4-fluoro-3-methylphenyl)-1,2,4-trimethyl-5-(2-(((1R,5S,6s)-3-(methylsulfonyl)-3-aabicyclo[3.1.0]hexan-6-yl)amino)-2-oxoacetyl)-1H-pyrrole-3-carboxamide], the negative logarithm of the EC50 (pEC50) in series [1] was greater than 7.30. For the same compound, the CC50 at 7 days in series [2] is 5 to 30 µM.

Consider `Cc1cc(NC(=O)c2c(C)c(C(=O)C(=O)NCc3cnc(N)s3)n(C)c2C)cnc1F` [Example 171, 5-(2-(((2-aminothiazol-5-yl)methyl)maino)-2-oxoacetyl)-N-(6-fluoro-5-methylpyridin-3-yl)-1,2,4-trimethyl-1H-pyrrole-3-carboxamide], for which the pEC50 in series [1] was greater than 7.30. This compound returned a CC50 at 7 days in series [2] greater than 30 µM.

Regarding `Cc1cc(NC(=O)c2c(C)c(C(=O)C(=O)NC3CC[C@@H](O)[C@@H](O)CC3)n(C)c2C)ccc1F` (stereo partly drawn) [Example 713, 5-(2-(((4R,5S)-4,5-dihydroxycycloheptyl)amino)-2-oxoacetyl)-N-(4-fluoro-3-methylphenyl)-1,2,4-trimethyl-1H-pyrrole-3-carboxamide], the pEC50 in series [1] was greater than 7.30. Besides, the CC50 at 7 days in series [2] is greater than 30 µM.

As for `Cc1cc(NC(=O)c2c(C)c(C(=O)C(=O)NC3(c4nc(-c5ccncc5)no4)CCCCC3)n(C)c2C)ccc1F` [Example 630, N-(4-fluoro-3-methylphenyl)-1,2,4-trimethyl-5-(2-oxo-2-((1-(3-(pyridin-4-yl)-1,2,4-oxadiazol-5-yl)cyclohexyl)amino)acetyl)-1H-pyrrole-3-carboxamide], the pEC50 in series [1] was greater than 7.30. The CC50 at 7 days in series [2] is greater than 30 µM.

Regarding `Cc1cc(NC(=O)c2c(C)c(C(=O)C(=O)NCC(C)(C)O)n(CCF)c2C)ccc1F` [Example 178, N-(4-fluoro-3-methylphenyl)-1-(2-fluoroethyl)-5-(2-((2-hydroxy-2-methylpropyl)amino)-2-oxoacetyl)-2,4-dimethyl-1H-pyrrole-3-carboxamide], the pEC50 in series [1] was 6.30 to 7.30. For the same compound, in series [2], the CC50 at 7 days was in the range of 5 to 30 µM.

In the case of `Cc1c(C(=O)Nc2ccc(F)c(F)c2)c(C)n(C)c1C(=O)C(=O)Nc1ccc(F)nc1` [Example 297, N-(3,4-difluorophenyl)-5-(2-((6-fluoropyridin-3-yl)amino)-2-oxoacetyl)-1,2,4-trimethyl-1H-pyrrole-3-carboxamide], in series [1], the pEC50 was greater than 7.30. This compound also yielded a CC50 at 7 days in series [2] of 5 to 30 µM.

For the compound `COC(=O)[C@H](NC(=O)C(=O)c1c(C)c(C(=O)Nc2ccc(F)c(C)c2)c(C)n1C)C1CCCCC1` [Example 56, methyl (R)-2-cyclohexyl-2-(2-(4-((4-fluoro-3-methylphenyl)carbamoyl)-1,3,5-trimethyl-1H-pyrrol-2-yl)-2-oxoacetamido)acetate], in series [1], the pEC50 is greater than 7.30. Besides, the CC50 at 7 days in series [2] is 0.5 to 4.99 µM.

On to `Cc1noc(C(C)NC(=O)C(=O)c2cc(C(=O)Nc3ccc(F)c(C)c3)c3n2CCCC3)n1` (centres unmarked) [Example 414, N-(4-fluoro-3-methylphenyl)-3-(2-((1-(3-cmethyl-1,2,4-oxadiazol-5-yl)ethyl)amino)-2-oxoacetyl)-5,6,7,8-tetrahydroindolizine-1-carboxamide], for which the pEC50 in series [1] was 6.30 to 7.30. In addition, the CC50 at 7 days in series [2] was greater than 30 µM.

Consider `CNC(=O)C(=O)c1c(C)c(C(=O)Nc2ccc(F)c(C)c2)c(C)n1C` [Example 242, N-(4-fluoro-3-methylphenyl)-1,2,4-trimethyl-5-(2-(methylamino)-2-oxoacetyl)-1H-pyrrole-3-carboxamide], for which the pEC50 in series [1] is 6.30 to 7.30. Also, the CC50 at 7 days in series [2] was greater than 30 µM.

With `Cc1cnc(NC(=O)c2c(C)c(C(=O)C(=O)NC(C)(C)CO)n3c2CCCC3)s1` [Example 758, 3-(2-((1-hydroxy-2-methylpropan-2-yl)amino)-2-oxoacetyl)-2-methyl-N-(5-methylthiazol-2-yl)-5,6,7,8-tetrahydroindazoline-1-carboxamide], the pEC50 in series [1] was 6.30 to 7.30. The compound also returned a 50% cytotoxic concentration (CC50) at 7 days in series [2] greater than 30 µM.

`CCn1c(C)c(C(=O)Nc2ccc(F)c(C)c2)c(C)c1C(=O)C(=O)NC(C)(C)C` [Example 96, 5-(2-(tert-butylamino)-2-oxoacetyl)-1-ethyl-N-(4-fluoro-3-methylphenyl)-2,4-dimethyl-1H-pyrrole-3-carboxamide]: the negative logarithm of the EC50 (pEC50) in series [1] is greater than 7.30. The same compound yielded a CC50 at 7 days in series [2] greater than 30 µM.

As for `Cc1cc(NC(=O)c2c(C)c(C(=O)C(=O)NC3CCN(c4nccs4)CC3)n(C)c2C)ccc1F` [Example 656], the pEC50 in series [1] is greater than 7.30. This compound also had a CC50 at 7 days in series [2] of 5 to 30 µM.

Take `Cc1cc(NC(=O)c2c(C)c(C(=O)C(=O)NC3(C)CCN(c4cnccn4)CC3)n(C)c2C)ccc1F` [Example 715, N-(4-fluoro-3-methylphenyl)-1,2,4-trimethyl-5-(2-((4-methyl-1-(pyrazin-2-yl)piperidin-4-yl)amino)-2-oxoacetyl)-1H-pyrrole-3-carboxamide]: the pEC50 in series [1] was greater than 7.30. In series [2], the CC50 at 7 days lay within 5 to 30 µM.

On to `Cc1cc(NC(=O)c2c(Cl)c(C(=O)C(=O)NC(C)(C)CO)n3c2CCC3)ccc1F` [Example 540, 6-chloro-N-(4-fluoro-3-methylphenyl)-5-(2-((1-hydroxy-2-methylpropan-2-yl)amino)-2-oxoacetyl)-2,3-dihydro-1H-pyrrolizine-7-carboxamide], for which, in series [1], the pEC50 is greater than 7.30. Moreover, the CC50 at 7 days in series [2] is greater than 30 µM.

On to `Cc1noc([C@@H](C)NC(=O)C(=O)c2c(C)c(C(=O)Nc3ccc(F)c(F)c3)c3n2CCCC3)n1` [Example 454, (R)-N-(3,4-difluorophenyl)-2-methyl-3-(2-((1-(3-methyl-1,2,4-oxadiazol-5-yl)ethyl)amino)-2-oxoacetyl) 5,6,7,8-tetrahydroindolizine-1-carboxamide], for which the pEC50 in series [1] is 6.30 to 7.30. This compound yielded a CC50 at 7 days in series [2] greater than 30 µM.

`Cc1cc(NC(=O)c2c(C)c(C(=O)C(=O)NCc3cnc(N)s3)n(C)c2C)ccc1F` [Example 97, 5-(2-(((2-aminothiazol-5-yl)methyl)amino)-2-oxoacetyl)-N-(4-fluoro-3-methylphenyl)-1,2,4-trimethyl-1H-pyrrole-3-carboxamide]: the pEC50 in series [1] is greater than 7.30. Further, the CC50 at 7 days in series [2] is greater than 30 µM.

Consider `Cc1c(C(=O)Nc2ccc(F)c(Cl)c2)c(C)n(C)c1C(=O)C(=O)Nc1ccc(F)c(F)c1` [Example 313], for which the pEC50 in series [1] is greater than 7.30. This compound returned a CC50 at 7 days in series [2] of 5 to 30 µM.

`Cc1cc(NC(=O)c2c(C)c(C(=O)C(=O)N[C@H]3COC[C@@H]3N3CCOCC3)n(C)c2C)ccc1F` [Example 711, N-(4-fluoro-3-methylphenyl)-1,2,4-trimethyl-5-(2-(((3R,4R)-4-morpholinotetrahydrofuran-3-yl)amino)-2-oxoacetyl)-1H-pyrrole-3-carboxamide]: in series [1], the pEC50 is greater than 7.30. In series [2], this compound showed a CC50 at 7 days greater than 30 µM.

`Cc1cc(NC(=O)c2c(C)c(C(=O)C(=O)NC3(C)CCS(=O)(=O)CC3)n(C)c2C)ccc1F` [Example 622, N-(4-fluoro-3-methylphenyl)-1,2,4-trimethyl-5-(2-((4-methyl-1,1-dioxidotetrahydro-2H-thiopyran-4-yl)amino)-2-oxoacetyl)-1H-pyrrole-3-carboxamide]: the pEC50 in series [1] is greater than 7.30. The compound also displayed a CC50 at 7 days in series [2] greater than 30 µM.

Regarding `Cc1cc(NC(=O)c2c(Cl)c(C(=O)C(=O)N[C@H]3CCC[C@H]3O)n3c2CCCC3)ccc1F` [Example 506, 2-chloro-N-(4-fluoro-3-methylphenyl)-3-(2-(((1S,2R)-2-hydroxycyclopentyl)amino)-2-oxoacetyl)-5,6,7,8-tetrahydroindolizine-1-carboxamide], the pEC50 in series [1] was 6.00 to 6.30. This compound returned a CC50 at 7 days in series [2] of 5 to 30 µM.

With `Cc1cc(NC(=O)c2c(C)c(C(=O)C(=O)NCCCN3CCOCC3)n(C)c2C)ccc1F` [Example 301, N-(4-fluoro-3-methylphenyl)-1,2,4-trimethyl-5-(2-((3-morpholinopropyl)amino)-2-oxoacetyl)-1H-pyrrole-3-carboxamide], in series [1], the pEC50 is greater than 7.30. In addition, in series [2], the CC50 at 7 days is greater than 30 µM.

Consider `CCn1c(C)c(C(=O)Nc2ccc(F)c(C)c2)c(C)c1C(=O)C(=O)NC1(C(F)(F)F)CCOCC1` [Example 285, 1-ethyl-N-(4-fluoro-3-methylphenyl)-2,4-dimethyl-5-(2-oxo-2-((4-(trifluoromethyl)tetrahydro-2H-pyran-4-yl)amino)acetyl)-1H-pyrrole-3-carboxamide], for which the pEC50 in series [1] was greater than 7.30. In addition, the CC50 at 7 days in series [2] is greater than 30 µM.

Turning to `Cc1cc(NC(=O)c2c(C)c(C(=O)C(=O)NC3CCS(=O)(=O)C(C)(C)C3)n(C)c2C)ccc1F` (centres unmarked) [Example 623, 5-(2-((2,2-dimethyl-1,1-dioxidotetrahydro-2H-thiopyran-4-yl)amino)-2-oxoacetyl)-N-(4-fluoro-3-methylphenyl)-1,2,4-trimethyl-1H-pyrrole-3-carboxamide], the pEC50 in series [1] was greater than 7.30. This compound gave a CC50 at 7 days in series [2] greater than 30 µM.
